Measured values as given in patent publication US10221178B2, “Purine inhibitors of human phosphatidylinositol 3-kinase delta” (MERCK SHARP & DOHME CORP., priority 2015, dated 2019).
Blank lines part the entries; values can stand above or below the compound they belong to.

How the values were obtained:
[1] = molecular target: PI3Kdelta (Homo sapiens (Human), UniProt O00329); assay: HTRF PI3K biochemical assay, delta isoform; conditions: 0.3 nM enzyme, 100 uM ATP, 5 uM PIP2, form screened: Neutral
Text: (§1) HTRF PI3K Biochemical Assay to Measure Intrinsic Potency of Compound Inhibitors
(§2) The PI3-Kinase biochemical assays were developed to measure the intrinsic potency and compound dependent inhibition of the alpha, beta, delta, and gamma PI3K isoform enzymes.
(§3) This assay was developed and further optimized from a kit produced by Upstate (Millipore catalog #33-047) and has been configured for HTS (high throughput screening) and SAR screening. Briefly, this procedure exploits the exquisite specificity and high affinity binding of enzyme reaction substrate phosphatidyl(3,4,5)triphosphate (PIP3) to the GRP1 pleckstrin homology (PH) domain to generate the signal. In the absence of PIP3, an HTRF (Homogeneous Time-Resolved Fluorescence energy transfer) complex is formed consisting of europium (Eu)-labeled anti-GST, GSTtagged GRP1-PH domain, biotin-PIP3 and streptavidin conjugated APC. The native PIP3 produced by PI3-Kinase activity disrupts in a competitive manner the biotin-PIP3 from the PH domain, resulting in the loss of energy transfer (HTRF complex) and a decrease in the signal. The format of this assay is the same for all 4 isoforms of PI3K; the differences lie in the concentration of enzyme used to achieve robust assay window. The alpha, beta, and delta assays are run at 0.5, 1, and 0.3 nM enzymes and the gamma assay is run at 5 nM enzyme. The ATP concentration is 100 uM in the alpha, beta, and delta assays and 50 uM ATP in the gamma assay. All reactions are run at 5 uM PIP2.
(§4) Compounds are serially diluted (3-fold in 100% DMSO) across a 384-well polypropylene source plated from column 3 to column 12 and column 13 to column 22, to yield 10 concentration dose response for each test compound. Columns 1, 2, 23 and 24 contain either only DMSO or pharmacological known control inhibitor. Once titrations are made, 2.5 nL of the compounds on 384 well plates are reformatted and transferred by acoustic dispense in quadruplicates to a 1536 assay plate (Greiner) to assay across all four PI3K isoform enzymes.
(§5) The PI3-Kinase biochemical assay was optimized using the HTRF kit provided by Upstate (Millipore). The assay kit contains six reagents: 1) 4× Reaction Buffer; 2) native PIP2 (substrate); 3) Stop (EDTA); 4) Detection Mix A (Streptavidin-APC); 5) Detection Mix B (Eu-labeled Anti-GST plus GST-tagged PH-domain); 6) Detection Mix C. In addition, the following items were obtained or purchased; PI3Kinase (alpha 14-602, beta 14-603, gamma 14-558 and delta 14-604 from Upstate; Millipore), dithiothreitol (Sigma, D-5545), Adenosine-5′ triphosphate (InVitrogen, Cat#AS001A), native PIP3 (PI(3,4,5)P3, diC8, H^+, CELLSIGNALS, INC. Cat #907) DMSO (Sigma, 472301).
(§6) PI3Kinase Reaction Buffer is prepared by dilution the stock 1:4 with de-ionized water. DTT, PIP2 and Biotin-PIP3 were added to 1536 assay plate at a final concentration of 5 mM, […] on the day of use. Enzyme addition and compound pre-incubation are initiated by the addition of 1.25 ul of PI3K (at twice its final concentration) in the 1× reaction buffer to all wells using a BioRaptor. Plates are incubated at RT for 15 minutes. Reactions are initiated by addition of 1.25 ul of 2× substrate solution (PIP2 and ATP in 1× reaction buffer) using BioRaptor. Plates are incubated in humidified chamber at RT for one hour. Reactions are quenched by addition of 0.625 uL of stop solution to all wells using the BioRaptor. The quenched reactions are then processed to detect product formation by adding 0.625 uL of Detection Solution to all wells using the BioRaptor (Detection mix C, Detection Mix A, and Detection Mix B combined together in an 18:1:1 ratio prepared 2 hours prior to use). Following a one hour incubation in the dark, the HTRF signal is measured on the Envision plate reader set for 330 nm excitation and dual emission detection at 620 nM (Eu) and 665 nM (APC).

[2] = molecular target: PI3Kalpha (Homo sapiens (Human), UniProt P42336); assay: HTRF PI3K biochemical assay, alpha isoform (selectivity versus PI3Kalpha); conditions: relative ratio (PI3K-alpha IC50 value/PI3K-delta IC50 value); form screened: Neutral
Text: as §1, §2, §3, §4, §5
as §6, with “[…]. […]” for “(APC).”

PI3Kdelta, sequence (O00329 whole entry, canonical isoform): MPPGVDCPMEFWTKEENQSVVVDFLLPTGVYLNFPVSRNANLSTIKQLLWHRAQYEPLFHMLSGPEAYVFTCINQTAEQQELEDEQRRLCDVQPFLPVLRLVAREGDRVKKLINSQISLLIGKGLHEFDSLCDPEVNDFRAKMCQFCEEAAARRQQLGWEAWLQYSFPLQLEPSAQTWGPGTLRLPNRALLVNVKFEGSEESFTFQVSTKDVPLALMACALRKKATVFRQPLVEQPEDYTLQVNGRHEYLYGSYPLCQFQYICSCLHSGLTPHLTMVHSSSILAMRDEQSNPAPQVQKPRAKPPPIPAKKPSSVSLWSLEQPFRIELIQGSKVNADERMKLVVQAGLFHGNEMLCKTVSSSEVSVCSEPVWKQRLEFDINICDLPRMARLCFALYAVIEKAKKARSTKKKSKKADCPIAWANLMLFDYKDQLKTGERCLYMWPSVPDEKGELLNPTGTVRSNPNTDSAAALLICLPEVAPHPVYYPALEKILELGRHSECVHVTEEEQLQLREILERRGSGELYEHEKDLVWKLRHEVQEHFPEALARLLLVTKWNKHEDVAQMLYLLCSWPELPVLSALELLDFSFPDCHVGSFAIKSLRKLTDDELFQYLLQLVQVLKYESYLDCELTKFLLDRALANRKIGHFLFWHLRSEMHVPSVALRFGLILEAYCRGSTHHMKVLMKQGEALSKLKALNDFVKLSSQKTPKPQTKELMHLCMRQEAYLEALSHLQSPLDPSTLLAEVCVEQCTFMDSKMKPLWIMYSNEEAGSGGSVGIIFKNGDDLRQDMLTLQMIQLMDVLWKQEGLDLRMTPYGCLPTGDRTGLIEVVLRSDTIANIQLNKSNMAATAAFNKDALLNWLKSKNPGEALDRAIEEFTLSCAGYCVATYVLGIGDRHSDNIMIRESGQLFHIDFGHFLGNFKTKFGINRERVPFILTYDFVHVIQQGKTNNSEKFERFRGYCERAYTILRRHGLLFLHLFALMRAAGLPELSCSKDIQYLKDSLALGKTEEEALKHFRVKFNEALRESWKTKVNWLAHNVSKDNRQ
PI3Kdelta, sequence (P27986 whole entry partner, canonical isoform): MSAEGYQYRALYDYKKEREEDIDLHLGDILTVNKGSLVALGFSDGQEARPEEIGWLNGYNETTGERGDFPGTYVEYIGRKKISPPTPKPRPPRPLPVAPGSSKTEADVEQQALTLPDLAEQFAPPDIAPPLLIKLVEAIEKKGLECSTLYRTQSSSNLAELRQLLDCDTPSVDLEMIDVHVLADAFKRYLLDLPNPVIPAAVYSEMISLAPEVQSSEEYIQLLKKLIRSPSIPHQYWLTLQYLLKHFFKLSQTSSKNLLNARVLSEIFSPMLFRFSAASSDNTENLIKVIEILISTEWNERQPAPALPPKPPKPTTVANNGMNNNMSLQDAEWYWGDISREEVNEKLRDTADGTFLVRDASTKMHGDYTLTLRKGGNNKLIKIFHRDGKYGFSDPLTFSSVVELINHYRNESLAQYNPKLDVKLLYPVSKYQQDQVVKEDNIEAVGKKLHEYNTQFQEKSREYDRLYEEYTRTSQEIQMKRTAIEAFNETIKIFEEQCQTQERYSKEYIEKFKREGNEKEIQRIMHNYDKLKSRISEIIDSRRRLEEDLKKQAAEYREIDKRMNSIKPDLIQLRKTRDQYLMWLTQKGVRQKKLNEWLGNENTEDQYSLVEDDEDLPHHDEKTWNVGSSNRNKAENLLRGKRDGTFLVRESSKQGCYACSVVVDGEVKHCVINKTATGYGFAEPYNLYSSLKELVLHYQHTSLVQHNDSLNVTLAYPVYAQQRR
PI3Kalpha, sequence (P42336 whole entry, canonical isoform): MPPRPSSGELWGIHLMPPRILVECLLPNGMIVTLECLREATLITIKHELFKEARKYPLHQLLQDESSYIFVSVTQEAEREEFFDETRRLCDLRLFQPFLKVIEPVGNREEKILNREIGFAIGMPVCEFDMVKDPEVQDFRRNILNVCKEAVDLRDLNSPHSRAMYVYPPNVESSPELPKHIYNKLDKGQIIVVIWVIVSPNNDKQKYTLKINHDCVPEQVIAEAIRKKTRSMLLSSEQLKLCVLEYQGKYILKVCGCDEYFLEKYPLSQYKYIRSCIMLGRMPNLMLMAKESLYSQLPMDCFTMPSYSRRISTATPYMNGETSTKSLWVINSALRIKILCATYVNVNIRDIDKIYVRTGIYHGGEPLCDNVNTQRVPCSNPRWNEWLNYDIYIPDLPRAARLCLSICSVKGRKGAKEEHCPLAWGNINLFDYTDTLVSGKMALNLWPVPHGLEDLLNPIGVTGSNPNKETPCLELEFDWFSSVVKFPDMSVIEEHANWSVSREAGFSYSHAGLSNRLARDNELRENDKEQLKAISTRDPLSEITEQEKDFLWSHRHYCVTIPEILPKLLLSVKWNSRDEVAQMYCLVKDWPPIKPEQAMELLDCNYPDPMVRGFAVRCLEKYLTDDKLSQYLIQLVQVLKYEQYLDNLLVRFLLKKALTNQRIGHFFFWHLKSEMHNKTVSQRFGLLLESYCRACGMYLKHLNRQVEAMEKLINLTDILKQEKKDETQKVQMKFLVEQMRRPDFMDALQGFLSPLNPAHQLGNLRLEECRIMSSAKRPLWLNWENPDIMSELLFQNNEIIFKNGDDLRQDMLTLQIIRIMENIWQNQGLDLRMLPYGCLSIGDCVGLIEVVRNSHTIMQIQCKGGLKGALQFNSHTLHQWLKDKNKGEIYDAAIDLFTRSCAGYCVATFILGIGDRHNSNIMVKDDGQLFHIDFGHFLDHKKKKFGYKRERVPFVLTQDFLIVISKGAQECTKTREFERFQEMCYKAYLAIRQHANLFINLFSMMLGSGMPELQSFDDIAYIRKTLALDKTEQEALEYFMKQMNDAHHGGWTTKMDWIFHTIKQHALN
PI3Kalpha, sequence (P27986 whole entry partner, canonical isoform): as the sequence (P27986 whole entry partner, canonical isoform) above

SMILES: CC[C@H](Nc1ncnc2c1nc(-c1cnc(C)nc1)n2CC)C(=O)N1CC[C@@H]2CCCC[C@@H]2C1 [Compound 2-20, 9-ethyl-8-(2-methylpyrimidin-5-yl)-N-{(1S)-1-[(cis)-octahydroisoquinolin-2(1H)-ylcarbonyl]propyl}-9H-purin-6-amine]
- IC50 [1]: 14 nM
- Selectivity versus PI3Kalpha [2]: >10

SMILES: CCn1c(-c2cnc(C)nc2)nc2c(N[C@H](C(=O)N3C[C@@H](C)O[C@@H](C)C3)[C@@H](C)OC)ncnc21 [Compound 2-52, N-[(1S,2R)-1-{[(cis)-2,6-dimethylmorpholin-4-yl]carbonyl}-2-methoxypropyl]-9-ethyl-8-(2-methylpyrimidin-5-yl)-9H-purin-6-amine]
- IC50 [1]: 3.7 nM
- Selectivity versus PI3Kalpha [2]: >10

SMILES: CC[C@H](Nc1ncnc2c1nc(-c1cnc(C)nc1)n2CC)C(=O)N1CC(=O)N(C)C(C)C1 (single isomer, unassigned) [Compound 4-5, (S or R)-4-[(2S)-2-{[9-ethyl-8-(2-methylpyrimidin-5-yl)-9H-purin-6-yl]amino}butanoyl]-1,6-dimethylpiperazin-2-one]
- IC50 [1]: 6.1 nM
- Selectivity versus PI3Kalpha [2]: >10

SMILES: CC[C@H](Nc1ncnc2c1nc(-c1cnc(C)nc1)n2CC)C(=O)N1CC2CCS(=O)(=O)C2C1 (mixture of isomers) [Compound 2-14, N-{(1S)-1-[((3a(R and S), 6a(R and S)-1,1-dioxidohexahydro-5H-thieno[2,3-c]pyrrol-5-yl)carbonyl]propyl}-9-ethyl-8-(2-methylpyrimidin-5-yl)-9H-purin-6-amine]
- IC50 [1]: 7 nM
- Selectivity versus PI3Kalpha [2]: >10

SMILES: CC[C@H](Nc1ncnc2c1nc(-c1cnc(C)nc1)n2CC)C(=O)N1CCOC(COC)C1 (stereo partly drawn) [Compound 2-35, 9-ethyl-N-[(1S)-1-{[2-(methoxymethyl)morpholin-4 yl]carbonyl}propyl]-8-(2-methylpyrimidin-5-yl)-9H-purin-6-amine]
- IC50 [1]: 39 nM
- Selectivity versus PI3Kalpha [2]: >10

SMILES: CCn1c(-c2cnc(C)nc2)nc2c(NC[C@@H](C)C(=O)N3CCCC3)ncnc21 [Compound 2-60, 9-ethyl-N-[(2R)-2-methyl-3-oxo-3-pyrrolidin-1-ylpropyl]-8-(2-methylpyrimidin-5-yl)-9H-purin-6-amine]
- IC50 [1]: 29 nM
- Selectivity versus PI3Kalpha [2]: >10

SMILES: CCC(Nc1ncnc2c1nc(-c1cnc(C)nc1)n2CC)C(=O)N1CCOCC1 (single isomer, unassigned) [Compound 1-8, (R or S)-9-ethyl-8-(2-methylpyrimidin-5-yl)-N-[1-(morpholin-4-ylcarbonyl)propyl]-9H-purin-6-amine]
- IC50 [1]: 6.5 nM
- Selectivity versus PI3Kalpha [2]: >10

SMILES: CCn1c(-c2cnc(C)nc2)nc2c(NC[C@H](C)C(=O)N3C[C@@H](C)O[C@@H](C)C3)ncnc21 [Compound 2-54, N-{(2S)-3-[(cis)-2,6-dimethylmorpholin-4-yl]-2-methyl-3-oxopropyl}-9-ethyl-8-(2-methylpyrimidin-5-yl)-9H-purin-6-amine]
- IC50 [1]: 250 nM
- Selectivity versus PI3Kalpha [2]: >10

SMILES: CC[C@H](Nc1ncnc2c1nc(-c1cnc(C)nc1)n2CC)C(=O)N1CC[C@@H](F)C1 [Compound 2-16, 9-ethyl-N-[(1S)-1-{[(3R)-3-fluoropyrrolidin-1-yl]carbonyl}propyl]-8-(2-methylpyrimidin-5-yl)-9H-purin-6-amine]
- IC50 [1]: 112 nM
- Selectivity versus PI3Kalpha [2]: >10

Further compounds by falling IC50 [1], results first:

- IC50 [1]: 110 nM
- Selectivity versus PI3Kalpha [2]: >10
SMILES: CCn1c(-c2cnc(C)nc2)nc2c(N[C@@H](CC(N)=O)C(=O)N3C[C@@H](C)O[C@@H](C)C3)ncnc21 [Compound 2-41, (3S)-4-[(cis)-2,6-dimethylmorpholin-4-yl]-3-{[9-ethyl-8-(2-methylpyrimidin-5-yl)-9H-purin-6-yl]amino}-4-oxobutanamide]

- IC50 [1]: 62 nM
- Selectivity versus PI3Kalpha [2]: >10
SMILES: CC[C@H](Nc1ncnc2c1nc(-c1cnc(C)nc1)n2CC)C(=O)N1CCC(OCCOC)CC1 [Compound 2-10, 9-ethyl-N-[(1S)-1-{[4-(2-methoxyethoxy)piperidin-1-yl]carbonyl}propyl]-8-(2-methylpyrimidin-5-yl)-9H-purin-6-amine]

- IC50 [1]: 60 nM
- Selectivity versus PI3Kalpha [2]: >10
SMILES: CC[C@H](Nc1ncnc2c1nc(-c1cnc(C)nc1)n2CC)C(=O)N1CC(C(F)F)C1 [Compound 2-11, N-[(1S)-1-{[3-(difluoromethyl)azetidin-1-yl]carbonyl}propyl]-9-ethyl-8-(2-methylpyrimidin-5-yl)-9H-purin-6-amine]

- IC50 [1]: 59 nM
- Selectivity versus PI3Kalpha [2]: >10
SMILES: CCn1ncc(-c2nc3c(N[C@@H](Cc4ccccc4)C(=O)N4CCOCC4)ncnc3n2C)c1C [Compound 2-2, N-[(1S)-1-benzyl-2-morpholin-4-yl-2-oxoethyl]-8-(1-ethyl-5-methyl-1H-pyrazol-4-yl)-9-methyl-9H-purin-6-amine]

- IC50 [1]: 37 nM
- Selectivity versus PI3Kalpha [2]: >10
SMILES: CC[C@H](Nc1ncnc2c1nc(-c1cnc(C)nc1)n2CC)C(=O)N1CC[C@H](F)C1 [Compound 2-15, 9-ethyl-N-[(1S)-1-{[(3S)-3-fluoropyrrolidin-1-yl]carbonyl}propyl]-8-(2-methylpyrimidin-5-yl)-9H-purin-6-amine]

- IC50 [1]: 27 nM
- Selectivity versus PI3Kalpha [2]: >10
SMILES: CC[C@H](Nc1ncnc2c1nc(-c1cnc(C)nc1)n2CC)C(=O)N1CCSC1C (mixture of isomers) [Compound 2-24, 9-ethyl-8-(2-methylpyrimidin-5-yl)-N-{(1S)-1-[((S and R)-2-methyl-1,3-thiazolidin-3-yl)carbonyl]propyl}-9H-purin-6-amine]

- IC50 [1]: 26 nM
- Selectivity versus PI3Kalpha [2]: >10
SMILES: CC[C@H](Nc1ncnc2c1nc(-c1cnc(C)nc1)n2CC)C(=O)N1CC(=O)N(C)C(C)C1 (single isomer, unassigned) [Compound 4-6, (S or R)-4-[(2S)-2-{[9-ethyl-8-(2-methylpyrimidin-5-yl)-9H-purin-6-yl]amino}butanoyl]-1,6-dimethylpiperazin-2-one]

- IC50 [1]: 11 nM
- Selectivity versus PI3Kalpha [2]: >10
SMILES: CC[C@H](Nc1ncnc2c1nc(-c1cnc(C)nc1)n2CC)C(=O)N1CCOC2(CC2)C1 [Compound 2-29, 9-ethyl-8-(2-methylpyrimidin-5-yl)-N-[(1S)-1-(4-oxa-7-azaspiro[2.5]oct-7-ylcarbonyl)propyl]-9H-purin-6-amine]

- IC50 [1]: 6.1 nM
- Selectivity versus PI3Kalpha [2]: >10
SMILES: CC[C@H](Nc1ncnc2c1nc(-c1cnc(C)nc1)n2CC)C(=O)N1C[C@@H](C)O[C@@H](C)C1 [Compound 2-6, N-[(1S)-1-{[(cis)-2,6-dimethylmorpholin-4-yl]carbonyl}propyl]-9-ethyl-8-(2-methylpyrimidin-5-yl)-9H-purin-6-amine]
